Assay results taken from US12344610B2, “APOL1 inhibitors and methods of use” (Maze Therapeutics, Inc., priority 2022, dated 2025).

What was measured:
[1] = tested on: HEK293 cells overexpressing APOL1 G2; assay: APOL1 G2 HEK293 cell rescue assay (reversal of cell death caused by overexpression of APOL1); format: cell-based; conditions: geometric mean of at least 2 assay runs, † = single assay run
Outline: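 Each compound tested in duplicate wells on one plate per run, with values usually the geometric mean across at least two runs on different days, occasionally from one run only. Read-out: concentration giving half-maximal rescue of APOL1 G2 overexpression-induced death of HEK293 cells.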

APOL1 G2 = molecular target: T1, APOL1 G2 (Homo sapiens, UniProt O14791, DEL388-389); assay: APOL1-mediated calcium transport (calcium influx) assay, HEK T-REx/GCaMP6f/APOL1 G2 K6.3 cells, FLIPR TETRA; format: cell-based; conditions: prevention of calcium influx; geometric mean of at least 2 assay runs; † = average of a technical replicate from a single assay run
T1 construct: expressed in transfected cells; host or cells: HEK293 T-REx clonal line stably expressing GCaMP6f (HEK T-REx/GCaMP6f/APOL1 G2 K6.3), doxycycline induced
T1 sequence (O14791 with tags, fused parts or gaps DEL388-389): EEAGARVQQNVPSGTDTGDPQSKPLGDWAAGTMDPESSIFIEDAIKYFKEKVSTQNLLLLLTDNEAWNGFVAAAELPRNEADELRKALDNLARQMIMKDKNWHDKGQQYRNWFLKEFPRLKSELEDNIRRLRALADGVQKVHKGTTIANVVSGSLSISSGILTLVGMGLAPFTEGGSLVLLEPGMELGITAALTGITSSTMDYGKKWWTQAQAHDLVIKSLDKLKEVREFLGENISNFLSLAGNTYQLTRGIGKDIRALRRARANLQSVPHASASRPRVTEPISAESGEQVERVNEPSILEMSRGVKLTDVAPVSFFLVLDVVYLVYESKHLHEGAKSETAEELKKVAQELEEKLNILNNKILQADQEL
Outline: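 A HEK293 T-REx clone stably expressing GCaMP6f had APOL1 G2 induced with doxycycline (20 ng/mL solution added) for 6 h. Cells were then washed into Ca2+-free Tyrode's buffer (pH 7.4) and preincubated with compounds (duplicate 8-point) for 10 min at room temperature. Ca2+ injection to 5 mM final produced FLIPR GCaMP fluorescence, giving AC50 for influx inhibition (geometric mean, ≥2 runs).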

[2] = Homo sapiens, HEK293, HEK293 overexpressing APOL1 G2

Work on `CC(c1c(F)cc(OCCN2CCC3(CC2)C(=O)Nc2ccc(C#N)cc23)cc1F)S(C)(=O)=O` (centres unmarked) [Compound 137, 1′-{2-[3,5-difluoro-4-(1-methanesulfonylethyl)phenoxy]ethyl}-2-oxo-1,2-dihydrospiro[indole-3,4′-piperidine]-5-carbonitrile] yielded an EC50 [1, 2] of 114 nM and an AC50 (APOL1 G2) of 597 nM.
In the case of `C[C@@H](COc1ccc(S(C)(=O)=O)cc1)N1CCC2(CC1)C(=O)Nc1ccccc12` (single isomer, unassigned) [Compound 12], the EC50 [1, 2] is reported as 307 nM and the AC50 (APOL1 G2) is reported as < 457 nM.
Work on `CC(c1c(F)cc(OCCN2CCC3(CC2)C(=O)Nc2ccc(Cl)cc23)cc1F)S(C)(=O)=O` (single isomer, unassigned) [Compound 143, (R) or (S)-5-chloro-1′-{2-[3,5-difluoro-4-(1-methanesulfonylethyl)phenoxy]ethyl}-1,2-dihydrospiro[indole-3,4′-piperidin]-2-one] yielded an EC50 ([1]; HEK293 overexpressing APOL1 G2) of 36.9 nM and an AC50 (APOL1 G2) of 701 nM.
Compound `O=C1CCC2c3ccc(OCCN4CCC5(CC4)C(=O)Nc4ccc(Cl)cc45)cc3CCN12` (single isomer, unassigned) [Compound 123, (R) or (S)-5-chloro-1′-[2-({3-oxo-1H,2H,3H,5H,6H,10bH-pyrrolo[2,1-a]isoquinolin-8-yl}oxy)ethyl]-1,2-dihydrospiro[indole-3,4′-piperidin]-2-one] has an EC50 ([1]; HEK293 overexpressing APOL1 G2) of 79.5 nM and an AC50 (APOL1 G2) of 796 nM.
In the case of `C[C@@H](CN1CCC2(CC1)C(=O)Nc1ccccc12)Oc1ccc(S(C)(=O)=O)cc1` (single isomer, unassigned) [Compound 13], the EC50 [1, 2] is reported as 3010 nM and the AC50 (APOL1 G2) is reported as < 587 nM.
Compound `CS(=O)(=O)C1(c2ccc(OCCN3CCC4(CC3)C(=O)Nc3ccc(C#N)cc34)cc2)CCC1` [Compound 181, 1′-{2-[4-(1-methanesulfonylcyclobutyl)phenoxy]ethyl}-2-oxo-1,2-dihydrospiro[indole-3,4′-piperidine]-5-carbonitrile] has an EC50 [1, 2] of 44.5 nM and an AC50 (APOL1 G2) of 656 nM.
`O=C1Nc2ccc(Cl)cc2C12CCN(CCOc1ccc(S(=O)(=O)[C@H]3C[C@@H](O)C3)cc1)CC2` [Compound 17, 5-chloro-1′-[2-(4-{[(cis)-3-hydroxycyclobutyl]sulfonyl}phenoxy)ethyl]-1,2-dihydrospiro[indole-3,4′-piperidin]-2-one] was tested, and the EC50 [1, 2] was 60 nM and the AC50 (APOL1 G2) was 1100 nM.
`Cc1cc(OCCN2CCC3(CC2)C(=O)Nc2ccc(C#N)cc23)cnc1S(C)(=O)=O` [Compound 140, 1′-{2-[(6-methanesulfonyl-5-methylpyridin-3-yl)oxy]ethyl}-2-oxo-1,2-dihydrospiro[indole-3,4′-piperidine]-5-carbonitrile] gave an EC50 [1, 2] of 172 nM and an AC50 (APOL1 G2) of 807 nM.
In the case of `CN1c2ccc(OCCN3CCC4(CC3)C(=O)Nc3ccc(Cl)cc34)cc2CCS1(=O)=O` [Compound 103, 6-(2-{5-chloro-2-oxo-1,2-dihydrospiro[indole-3,4′-piperidin]-1′-yl}ethoxy)-1-methyl-3,4-dihydro-1H-2λ^6,1-benzothiazine-2,2-dione], the EC50 [1, 2] is reported as 49.4 nM and the AC50 (APOL1 G2) is reported as 591 nM.
Compound `CC(C)N1C(=O)Cc2cc(OCCN3CCC4(CC3)C(=O)Nc3ccc(Cl)cc34)ccc21` [Compound 145, 5-chloro-1′-(2-{[2-oxo-1-(propan-2-yl)-2,3-dihydro-1H-indol-5-yl]oxy}ethyl)-1,2-dihydrospiro[indole-3,4′-piperidin]-2-one] has an EC50 [1, 2] of 50.4 nM and an AC50 (APOL1 G2) of 465 nM.
Compound `O=C1CCc2cc(OCCN3CCC4(CC3)C(=O)Nc3ccc(Cl)cc34)ccc2N1[C@H]1C[C@@H](O)C1` [Compound 114, 5-chloro-1′-[2-({2-oxo-1-[(cis)-3-hydroxycyclobutyl]-1,2,3,4-tetrahydroquinolin-6-yl}oxy)ethyl]-1,2-dihydrospiro[indole-3,4′-piperidin]-2-one] has an EC50 [1, 2] of 46.5 nM and an AC50 (APOL1 G2) of 529 nM.
For `Cc1cc(OCCN2CCC3(CC2)C(=O)Nc2ccc(Cl)cc23)cnc1S(C)(=O)=O` [Compound 161, 5-chloro-1′-{2-[(6-methanesulfonyl-5-methylpyridin-3-yl)oxy]ethyl}-1,2-dihydrospiro[indole-3,4′-piperidin]-2-one], the EC50 [1, 2] was 46.4 nM and the AC50 (APOL1 G2) was 539 nM.
For `CN1c2ccc(OCCN3CCC4(CC3)C(=O)Nc3ccc(C#N)cc34)cc2CCS1(=O)=O` [Compound 104, 1′-{2-[(1-methyl-2,2-dioxo-3,4-dihydro-1H-2λ^6,1-benzothiazin-6-yl)oxy]ethyl}-2-oxo-1,2-dihydrospiro[indole-3,4′-piperidine]-5-carbonitrile], the EC50 [1, 2] was 139 nM and the AC50 (APOL1 G2) was 408 nM.
Compound `CS(=O)(=O)C1(c2ccc(OCCN3CCC4(CC3)C(=O)Nc3ccc(Cl)cc34)cc2)CCOCC1` [Compound 188, 5-chloro-1′-{2-[4-(4-methanesulfonyloxan-4-yl)phenoxy]ethyl}-1,2-dihydrospiro[indole-3,4′-piperidin]-2-one] has an EC50 [1, 2] of 39.2 nM and an AC50 (APOL1 G2) of 513 nM.
`CC(C)(c1ccc(OCCN2CCC3(CC2)C(=O)Nc2ccc(C#N)cc23)cn1)S(C)(=O)=O` [Compound 191, 1′-(2-{[6-(2-methanesulfonylpropan-2-yl)pyridin-3-yl]oxy}ethyl)-2-oxo-1,2-dihydrospiro[indole-3,4′-piperidine]-5-carbonitrile] showed an EC50 [1, 2] of 130 nM and an AC50 (APOL1 G2) of 1170 nM.
In the case of `CS(=O)(=O)C1(c2ccc(OCCN3CCC4(CC3)C(=O)Nc3ccc(C#N)cc34)cc2)COC1` [Compound 109, 1′-{2-[4-(3-methanesulfonyloxetan-3-yl)phenoxy]ethyl}-2-oxo-1,2-dihydrospiro[indole-3,4′-piperidine]-5-carbonitrile], the EC50 [1, 2] is reported as 96.9 nM and the AC50 (APOL1 G2) is reported as 1190 nM.
For `O=C1CCc2cc(OCCN3CCC4(CC3)C(=O)Nc3ccc(Cl)cc34)ccc2N1CC(F)F` [Compound 106, 5-chloro-1′-(2-{[1-(2,2-difluoroethyl)-2-oxo-1,2,3,4-tetrahydroquinolin-6-yl]oxy}ethyl)-1,2-dihydrospiro[indole-3,4′-piperidin]-2-one], the EC50 [1, 2] was 33.5 nM and the AC50 (APOL1 G2) was 756 nM.
Compound `CC(c1c(F)cc(OCCN2CCC3(CC2)C(=O)Nc2ccc(Cl)cc23)cc1F)S(C)(=O)=O` (single isomer, unassigned) [Compound 142, (S) or (R)-5-chloro-1′-{2-[3,5-difluoro-4-(1-methanesulfonylethyl)phenoxy]ethyl}-1,2-dihydrospiro[indole-3,4′-piperidin]-2-one] has an EC50 [1, 2] of 48.3 nM and an AC50 (APOL1 G2) of 845 nM.
`CS(=O)(=O)c1ccc(OCCN2CCC3(CC2)C(=O)Nc2ccc(Cl)cc23)cc1OC(F)F` [Compound 163, 5-chloro-1′-{2-[3-(difluoromethoxy)-4-methanesulfonylphenoxy]ethyl}-1,2-dihydrospiro[indole-3,4′-piperidin]-2-one] gave an EC50 [1, 2] of 24.6 nM and an AC50 (APOL1 G2) of 528 nM.
For `CS(=O)(=O)CCCn1ncc2cc(OCCN3CCC4(CC3)C(=O)Nc3ccc(Cl)cc34)ccc21` [Compound 14, 5-chloro-1′-(2-{[1-(3-methanesulfonylpropyl)-1H-indazol-5-yl]oxy}ethyl)-1,2-dihydrospiro[indole-3,4′-piperidin]-2-one], the EC50 [1, 2] was 130 nM and the AC50 (APOL1 G2) was 704 nM.
With `CN1CCc2cc(OCCN3CCC4(CC3)C(=O)Nc3ccc(C#N)cc34)ccc2S1(=O)=O` [Compound 154, 1′-{2-[(2-methyl-1,1-dioxo-3,4-dihydro-2H-1λ^6,2-benzothiazin-6-yl)oxy]ethyl}-2-oxo-1,2-dihydrospiro[indole-3,4′-piperidine]-5-carbonitrile] the EC50 [1, 2] was 67.1 nM and the AC50 (APOL1 G2) was 869 nM.
Work on `CN1C(=O)C2(CCN(CCOc3cc(F)c(C4(S(C)(=O)=O)COC4)c(F)c3)CC2)c2cc(C#N)ccc21` [Compound 189, 1′-{2-[3,5-difluoro-4-(3-methanesulfonyloxetan-3-yl)phenoxy]ethyl}-1-methyl-2-oxo-1,2-dihydrospiro[indole-3,4′-piperidine]-5-carbonitrile] yielded an EC50 [1, 2] of 59.1 nM and an AC50 (APOL1 G2) of 349 nM.
For `CC(c1ccc(OCCN2CCC3(CC2)C(=O)Nc2ccc(C#N)cc23)cc1)S(C)(=O)=O` (single isomer, unassigned) [Compound 134, (S) or (R)-1′-{2-[4-(1-methanesulfonylethyl)phenoxy]ethyl}-2-oxo-1,2-dihydrospiro[indole-3,4′-piperidine]-5-carbonitrile], the EC50 [1, 2] was 199 nM and the AC50 (APOL1 G2) was 879 nM.
In the case of `CC(c1c(F)cc(OCCN2CCC3(CC2)C(=O)Nc2ccc(C#N)cc23)cc1F)S(C)(=O)=O` (single isomer, unassigned) [Compound 138, (S) or (R)-1′-{2-[3,5-difluoro-4-(1-methanesulfonylethyl)phenoxy]ethyl}-2-oxo-1,2-dihydrospiro[indole-3,4′-piperidine]-5-carbonitrile], the EC50 [1, 2] is reported as 78.2 nM and the AC50 (APOL1 G2) is reported as 1220 nM.
`CN=S(C)(=O)c1ccc(OCCN2CCC3(CC2)C(=O)Nc2ccc(C#N)cc23)cc1` (single isomer, unassigned) [Compound 151, (S) or (R)-1′-(2-{4-[methyl(methylimino)oxo-λ^6-sulfanyl]phenoxy}ethyl)-2-oxo-1,2-dihydrospiro[indole-3,4′-piperidine]-5-carbonitrile] showed an EC50 [1, 2] of 397 nM and an AC50 (APOL1 G2) of 1740 nM.
